From ChEMBL document CHEMBL1126846, “Two new unsaturated fatty acid ethanolamides in brain that bind to the cannabinoid receptor” (J Med Chem, 1993) come the findings set out here.

The assay has as its target Cannabinoid receptor (Mus musculus, UniProt P47746+P47936). The assay is described as follows: Ability to displace [3H]HU-243 binding to cannabinoid receptor in synaptosomal membrane. Format: cell membranes.

For orientation: Ki means the equilibrium dissociation constant of an inhibitor or competing ligand from its target. With `CCCCC/C=C\C/C=C\C/C=C\CCCCCCCC(=O)NCCO`, the inhibition constant Ki is 53.4 nM. The compound `CCCCC/C=C\C/C=C\C/C=C\C/C=C\CCCCCC(=O)NCCO` registered an inhibition constant Ki of 34.4 nM. Against the preceding compound, the Ki is about 1.6-fold lower.
